Here are results for one molecule from patent US4345938A, “Herbicidal 2-haloacetanilides” (Monsanto Company, priority 1980, dated 1982).

Common to all, as to format: in vivo
Data set [1] in a line: Fish toxicity (carp), Japanese protocol. To be noted: in vivo, carp (7 cm), read-out: TLM, Median Tolerance Limit (LC50). As to the method: (§1) In view of the importance of fish toxicity considerations, tests were conducted with the compound of Example 1 on carp (7 cm) according to Japanese protocol; test data are shown in Table VII. Since U.S. Pat. No. 3,955,959 mentioned above discloses carp toxicity data for butachlor (Compound A) and terbuchlor (Compound C), also obtained according to Japanese protocol, the toxicity data in said U.S. Pat. No. 3,955,959 for these compounds is also presented in Table VII for comparative purposes.

A further data set concerns Carp. In words: Fish toxicity (carp), Japanese protocol. The method, then: as §1
A further data set relates to Crabgrass. The data set can be described thus: Pre-emergent herbicidal test, Crabgrass. Note: ranges in brackets are in %. The following applies: Table II. From the text: A good grade of top soil is placed in aluminum pans and compacted to a depth of three-eights to one-half inch from the top of the pan. On the top of the soil is placed a number of seeds or vegetative propagules of various plant species. The soil required to level fill the pans after seeding or adding vegetative propagules is weighted into a pan. The soil and a known amount of the active ingredient applied in a solvent or as a wettable powder suspension are thoroughly mixed, and used to cover the prepared pans. After treatment, the pans are moved into a greenhouse bench where they are watered by subirrigation as needed to give adequate moisture for germination and growth.
Approximately 2 weeks after seeding and treating, the plants were observed and the results recorded. The herbicidal rating was obtained by means of a fixed scale based on the percent injury of each plant species. The ratings are defined as follows: […]
The compounds were further tested by utilizing the above procedure on the following plant species: […]

In a further data set the test system is direct-seeded rice. The data set can be described thus: Field tests in direct-seeded rice. The following applies: less tolerant than transplant rice. An excerpt:
The herbicides of this invention may be used singly, as mixtures with other herbicides and may be used in sequential use with other herbicides. For example, treatments of a transplant rice crop with the herbicides of this invention may be followed with treatments of other herbicides or mixtures such as S-4-chlorobenzyl diethylthiocarbamate (common name "benthiocarb") plus 2-chloro-4,6-di(ethylamino)-1,3,5-triazine (common name "simazine") or 3-isopropyl-(1H)-benzo-2,1,3-thiadiazine-4-one-2,2-dioxide (common name "bentazone") or 4-(4-chloro-2-methylphenoxy)butyric acid (common name "MCPB"). […] However, because of the high unit activity of compounds according to this invention against annual and perennial weeds associated with rice, it is within the purview of this invention to combine these herbicides with safeners or antidotes, to enhance the tolerance of both transplanted and direct-seeded rice thereto. Exemplary safeners contemplated as useful with the herbicides of this invention include the phenylglyoxylonitrile-2-oxime cyanomethyl ether described in U.S. Pat. No. 4,152,137, 2,4-disubstituted-5-thiazolecarboxylic acids and derivatives thereof as disclosed in the assignee's copending U.S. Ser. No. 906,183 and other known safeners for 2-haloacetanilides in rice.

Each structure is given as a SMILES string. In brackets after ≈: the same amount, converted by molar mass.

One may read the LC50 as the concentration that kills 50% of the test population.

As to `CCCCOc1cccc(CC)c1N(C)C(=O)CCl` [Example 1, N-methyl-2'-n-butoxy-6'-ethyl-2-chloroacetanilide], the LC50 at 96 h in data set [1] (96 Hours) stood at 2.4 µg/mL (≈ 8.46 µM). For the same molecule, the LC50 at 48 h in data set [1] (48 hours) was found to be 3.2 µg/mL (≈ 11.3 µM). The “expected fish kill relative to Compound A” value in the data set with Carp (at expected use rates, vs Compound A) is on record as “only one-sixth”. Besides, in the data set with Carp (vs Compound A), the “toxicity to carp relative to Compound A” value is on record as “less than one-third as toxic”. Also, the “toxicity to carp relative to Compound C” value in the data set with Carp (vs Compound C) is recorded as “almost one-half as toxic”. Besides, the “Rating, Crabgrass” value is on record as 1 (25-49) with Crabgrass (0.006 kg/h); 3 (75-100) in the data set with Crabgrass (0.01 kg/h); 3 (75-100) in the data set with Crabgrass (0.06 kg/h); 3 (75-100) in the data set with Crabgrass (0.28 kg/h); 3 (75-100) in the data set with Crabgrass (1.12 kg/h); 3 (75-100) in the data set on Crabgrass (5.6 kg/h). Also, the “efficacy in direct-seeded rice” value in the data set on direct-seeded rice is listed as “less-efficacious”.
